Experiment [1] can be described thus: M. tuberculosis H37Rv growth inhibitors, H37Rv strain (AID 1626). It is filed as functional.
Another experiment concerns the target T1, Streptokinase A (Streptococcus pyogenes serotype M1, UniProt P10520).
T1 sequence (P10520 whole entry): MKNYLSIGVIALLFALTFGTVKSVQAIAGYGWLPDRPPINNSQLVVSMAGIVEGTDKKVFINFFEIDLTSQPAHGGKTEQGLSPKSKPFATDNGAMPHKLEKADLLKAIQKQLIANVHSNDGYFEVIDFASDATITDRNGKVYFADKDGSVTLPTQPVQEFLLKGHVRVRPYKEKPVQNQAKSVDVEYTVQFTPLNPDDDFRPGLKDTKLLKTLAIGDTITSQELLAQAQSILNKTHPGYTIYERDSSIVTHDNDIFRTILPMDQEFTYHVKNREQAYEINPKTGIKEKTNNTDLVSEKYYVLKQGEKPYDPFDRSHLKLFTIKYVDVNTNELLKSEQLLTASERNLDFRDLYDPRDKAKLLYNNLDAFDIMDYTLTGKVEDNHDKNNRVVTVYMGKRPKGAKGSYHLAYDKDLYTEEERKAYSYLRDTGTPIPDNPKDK
In words: viability-normalized secreted streptokinase activity reduction – plasminogen activation absorbance, OD405, dose response (AID 1914).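 Note: secreted streptokinase activity via plasminogen activation per viability signal from cell pellet.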 It is filed as functional, Streptococcus pyogenes M1 GAS.

The target of experiment [2] is T2, Mannose-6-phosphate isomerase (Homo sapiens, UniProt P34949).
T2 sequence (P34949 whole entry): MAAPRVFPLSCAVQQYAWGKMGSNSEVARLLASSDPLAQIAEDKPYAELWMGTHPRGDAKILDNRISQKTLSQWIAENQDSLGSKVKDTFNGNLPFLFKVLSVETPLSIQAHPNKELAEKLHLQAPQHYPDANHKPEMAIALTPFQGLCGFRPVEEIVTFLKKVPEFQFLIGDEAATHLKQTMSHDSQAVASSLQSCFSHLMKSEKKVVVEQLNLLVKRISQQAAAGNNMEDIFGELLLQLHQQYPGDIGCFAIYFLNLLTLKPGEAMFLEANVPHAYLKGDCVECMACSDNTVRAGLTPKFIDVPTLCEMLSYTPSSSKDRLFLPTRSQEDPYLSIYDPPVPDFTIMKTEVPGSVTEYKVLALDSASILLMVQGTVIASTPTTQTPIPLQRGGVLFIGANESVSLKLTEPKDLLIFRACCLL
Nature of the experiment: MPI inhibition at elevated mannose 6-phosphate – biochemical, fluorescence intensity, high mannose 6-phosphate, primary screen (AID 1220).

Experiment [3] addresses T3, Rac GTPase-activating protein 1 (Homo sapiens, UniProt Q9H0H5).
T3 sequence (Q9H0H5 whole entry): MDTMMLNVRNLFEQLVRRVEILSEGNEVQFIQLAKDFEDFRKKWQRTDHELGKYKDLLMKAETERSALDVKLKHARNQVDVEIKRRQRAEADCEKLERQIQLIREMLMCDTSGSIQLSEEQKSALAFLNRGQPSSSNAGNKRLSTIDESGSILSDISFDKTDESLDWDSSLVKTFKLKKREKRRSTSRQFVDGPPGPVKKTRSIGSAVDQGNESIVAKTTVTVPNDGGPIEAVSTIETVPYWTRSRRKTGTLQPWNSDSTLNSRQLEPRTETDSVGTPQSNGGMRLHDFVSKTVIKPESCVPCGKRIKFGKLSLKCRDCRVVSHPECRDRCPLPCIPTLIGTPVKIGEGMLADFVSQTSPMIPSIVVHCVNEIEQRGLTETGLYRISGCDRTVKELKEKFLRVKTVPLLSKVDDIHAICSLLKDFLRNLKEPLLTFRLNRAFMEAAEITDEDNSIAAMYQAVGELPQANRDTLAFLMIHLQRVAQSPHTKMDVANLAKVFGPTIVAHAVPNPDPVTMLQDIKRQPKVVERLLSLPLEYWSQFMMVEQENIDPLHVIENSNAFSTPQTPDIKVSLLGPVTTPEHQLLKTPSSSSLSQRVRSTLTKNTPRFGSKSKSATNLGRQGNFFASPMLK
Nature of the experiment: blockers of MgcRacGAP-driven Rac1 GTP hydrolysis – biochemical, ADP Hunter fluorescence, primary and confirmatory, confirmation (AID 624330). It is filed as functional.

Experiment [4] relates to Vero. Nature of the experiment: viability of Vero cells under compound – cytotoxicity control for flavivirus capping enzyme inhibitors (AID 588742). It is filed as functional. The note with it: Chlorocebus sabaeus.
Another experiment relates to Streptococcus. In words: GAS UMAA2166 growth inhibition – luminescence, BacTiterGlo, counter-screen for streptokinase expression inhibitor project, dose response (AID 1915).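 Note: potency for reduction of bacterial viability or growth.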 It is filed as functional, organism-based. On the technique in general: A counterscreen serves to expose hits that act by an unwanted route or on another target.
Experiment [5] concerns Streptococcus sp. 'group A'. Nature of the experiment: Streptococcus pyogenes SK(-)GAS viability under kanamycin – luminescence, BacTiterGlo, confirmation, counter-screen for streptokinase expression inhibitor project, dose response (AID 1900). It is filed as functional, organism-based.
A further experiment concerns the target Ion channel NompC (Danio rerio, UniProt Q7T1G6). In words: Fluorescence counterscreen assay for TRPML3 agonists: dose response cell-based high-throughput screening assay to identify agonists of the transient receptor potential channel N1 (TRPN1). [Related pubchem assays: 1526, 1424, 1448 ]. It is filed as functional.
In another experiment the target is Mucolipin-3 (Homo sapiens, UniProt Q8TDD5). In words: Dose response cell-based high-throughput screening assay for agonists of the transient receptor potential channel ML3 (TRPML3). [Related pubchem assays: 1526, 1424, 1448 ]. It is filed as functional.
Experiment [6] is described as follows: Trypanosoma cruzi growth suppression in host cells – NIH3T3 host cells, beta-gal luminescence, confirmation (AID 2044).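 Note: intracellular parasites grown in NIH/3T3 mouse fibroblasts as host cells; luminescent beta-galactosidase reporter signal from transgenic T. cruzi replicating inside host cells; inhibitors lower the luminescence signal.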 It is filed as functional, cell-based.
Experiment [7] is described as follows: A Cell Based Secondary Assay To Explore Cytotoxicity of Compounds that Sensitize Mycobacterium Tuberculosis to Beta-Lactam Antibiotics. It is filed as functional.
Experiment [8] is described as follows: NIH3T3 cell viability loss – ATP luminescence, mouse fibroblasts, counter-screen, dose response (AID 2010).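 Note: cells exposed to compound for about 90 hours before reading.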 It is filed as functional, cell-based.
For the next experiment, the target named is Cytochrome P450 2C9 (Homo sapiens, UniProt P11712). The note with it: Potency.
Another experiment has as its target Cytochrome P450 3A4 (Homo sapiens, UniProt P08684). The conditions noted are these: Potency.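 Note: confirmatory qHTS run detecting inhibitors and substrates of CYP3A4.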
Experiment [9] has as its target Lysosomal acid glucosylceramidase (Homo sapiens, UniProt P04062). In words: Dose response cell-based high throughput screening assay to identify enhancers of beta-glucosidase activity. [Related pubchem assays: 784 ]. It is filed as functional.
The subject of experiment [10] is Vero. Nature of the experiment: cells. It is filed as functional. The note with it: Chlorocebus sabaeus.
Experiment [11] concerns the target T4, Short transient receptor potential channel 4 (Mus musculus, UniProt Q9QUQ5).
T4 sequence (Q9QUQ5 whole entry): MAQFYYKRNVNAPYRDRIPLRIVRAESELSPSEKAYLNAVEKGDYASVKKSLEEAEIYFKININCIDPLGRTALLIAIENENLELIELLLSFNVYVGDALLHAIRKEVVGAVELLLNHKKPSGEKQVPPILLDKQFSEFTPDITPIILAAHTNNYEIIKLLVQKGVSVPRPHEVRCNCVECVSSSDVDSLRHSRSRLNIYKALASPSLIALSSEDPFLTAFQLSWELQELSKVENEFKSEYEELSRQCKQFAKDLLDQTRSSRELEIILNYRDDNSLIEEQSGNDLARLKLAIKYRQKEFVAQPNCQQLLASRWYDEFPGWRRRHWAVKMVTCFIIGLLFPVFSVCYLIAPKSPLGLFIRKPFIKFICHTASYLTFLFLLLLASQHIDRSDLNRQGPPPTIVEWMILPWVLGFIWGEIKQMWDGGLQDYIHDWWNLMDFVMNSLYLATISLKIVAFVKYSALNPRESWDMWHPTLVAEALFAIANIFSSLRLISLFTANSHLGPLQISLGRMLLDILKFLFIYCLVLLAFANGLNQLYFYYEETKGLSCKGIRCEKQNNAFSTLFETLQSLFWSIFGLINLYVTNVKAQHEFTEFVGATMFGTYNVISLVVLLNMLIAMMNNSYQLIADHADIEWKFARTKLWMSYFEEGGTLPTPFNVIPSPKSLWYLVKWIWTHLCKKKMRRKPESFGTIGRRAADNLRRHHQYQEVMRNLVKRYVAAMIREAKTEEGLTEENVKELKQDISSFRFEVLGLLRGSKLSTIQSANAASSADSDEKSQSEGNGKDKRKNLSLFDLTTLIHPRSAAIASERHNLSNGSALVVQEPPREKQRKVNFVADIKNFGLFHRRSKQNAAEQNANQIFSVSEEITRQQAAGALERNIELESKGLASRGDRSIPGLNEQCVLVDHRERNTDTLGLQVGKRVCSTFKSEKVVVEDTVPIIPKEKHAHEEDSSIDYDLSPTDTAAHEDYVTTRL
In words: calcium entry via TRPC4 opening agents – cell-based, HEK293 TRPC4/mu-opioid, Fluo-4 calcium, dose response (AID 434937). It is filed as functional.

Another experiment deals with T5, Aminopeptidase N (Plasmodium falciparum FcB1/Columbia, UniProt O96935).
T5 sequence (O96935 whole entry): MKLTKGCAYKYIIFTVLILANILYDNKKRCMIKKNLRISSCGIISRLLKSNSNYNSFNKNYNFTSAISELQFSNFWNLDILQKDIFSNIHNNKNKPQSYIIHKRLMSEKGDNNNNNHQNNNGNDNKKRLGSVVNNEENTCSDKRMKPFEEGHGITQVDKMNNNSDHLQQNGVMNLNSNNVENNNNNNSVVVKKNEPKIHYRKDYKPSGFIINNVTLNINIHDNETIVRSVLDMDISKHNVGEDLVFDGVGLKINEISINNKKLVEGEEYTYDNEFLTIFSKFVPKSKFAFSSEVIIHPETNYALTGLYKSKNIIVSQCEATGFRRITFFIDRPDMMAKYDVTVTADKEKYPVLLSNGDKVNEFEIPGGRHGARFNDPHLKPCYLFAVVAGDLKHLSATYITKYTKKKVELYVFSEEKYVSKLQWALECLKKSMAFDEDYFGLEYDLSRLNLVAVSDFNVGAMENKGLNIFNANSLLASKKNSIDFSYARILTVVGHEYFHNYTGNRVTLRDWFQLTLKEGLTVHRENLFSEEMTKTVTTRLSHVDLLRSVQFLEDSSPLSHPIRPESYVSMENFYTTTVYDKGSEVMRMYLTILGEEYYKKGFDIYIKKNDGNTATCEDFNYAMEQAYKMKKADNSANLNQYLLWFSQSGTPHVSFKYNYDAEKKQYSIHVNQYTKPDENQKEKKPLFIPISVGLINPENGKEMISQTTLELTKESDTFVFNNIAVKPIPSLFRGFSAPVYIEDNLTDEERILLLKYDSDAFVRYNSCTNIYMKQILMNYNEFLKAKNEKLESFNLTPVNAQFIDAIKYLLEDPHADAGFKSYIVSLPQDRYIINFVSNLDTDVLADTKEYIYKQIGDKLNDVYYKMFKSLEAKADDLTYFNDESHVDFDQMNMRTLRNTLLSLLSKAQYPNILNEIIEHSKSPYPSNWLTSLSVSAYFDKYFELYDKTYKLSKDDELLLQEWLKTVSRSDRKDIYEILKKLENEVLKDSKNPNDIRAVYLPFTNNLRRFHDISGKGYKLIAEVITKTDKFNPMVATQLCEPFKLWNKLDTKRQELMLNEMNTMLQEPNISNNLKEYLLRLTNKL
In words: malaria alanyl aminopeptidase activity blockers – biochemical, fluorogenic H-Leu-NHMec substrate, 1536-well (AID 1445). The arrangement: species or system Plasmodium falciparum 3D7, 3D7.

Another experiment concerns the target Nonstructural protein 1 (Influenza A virus, UniProt Q194T2). It is filed as functional, Influenza A virus (A/California/07/2009(H1N1)).
Experiment [12] deals with T2, Mannose-6-phosphate isomerase. In words: MPI enzyme activity inhibition – biochemical, fluorescence intensity, coupled assay, primary screen (AID 1209).

Active and inactive are the calls of the source.

Sequence of Ion channel NompC (Q7T1G6 whole entry): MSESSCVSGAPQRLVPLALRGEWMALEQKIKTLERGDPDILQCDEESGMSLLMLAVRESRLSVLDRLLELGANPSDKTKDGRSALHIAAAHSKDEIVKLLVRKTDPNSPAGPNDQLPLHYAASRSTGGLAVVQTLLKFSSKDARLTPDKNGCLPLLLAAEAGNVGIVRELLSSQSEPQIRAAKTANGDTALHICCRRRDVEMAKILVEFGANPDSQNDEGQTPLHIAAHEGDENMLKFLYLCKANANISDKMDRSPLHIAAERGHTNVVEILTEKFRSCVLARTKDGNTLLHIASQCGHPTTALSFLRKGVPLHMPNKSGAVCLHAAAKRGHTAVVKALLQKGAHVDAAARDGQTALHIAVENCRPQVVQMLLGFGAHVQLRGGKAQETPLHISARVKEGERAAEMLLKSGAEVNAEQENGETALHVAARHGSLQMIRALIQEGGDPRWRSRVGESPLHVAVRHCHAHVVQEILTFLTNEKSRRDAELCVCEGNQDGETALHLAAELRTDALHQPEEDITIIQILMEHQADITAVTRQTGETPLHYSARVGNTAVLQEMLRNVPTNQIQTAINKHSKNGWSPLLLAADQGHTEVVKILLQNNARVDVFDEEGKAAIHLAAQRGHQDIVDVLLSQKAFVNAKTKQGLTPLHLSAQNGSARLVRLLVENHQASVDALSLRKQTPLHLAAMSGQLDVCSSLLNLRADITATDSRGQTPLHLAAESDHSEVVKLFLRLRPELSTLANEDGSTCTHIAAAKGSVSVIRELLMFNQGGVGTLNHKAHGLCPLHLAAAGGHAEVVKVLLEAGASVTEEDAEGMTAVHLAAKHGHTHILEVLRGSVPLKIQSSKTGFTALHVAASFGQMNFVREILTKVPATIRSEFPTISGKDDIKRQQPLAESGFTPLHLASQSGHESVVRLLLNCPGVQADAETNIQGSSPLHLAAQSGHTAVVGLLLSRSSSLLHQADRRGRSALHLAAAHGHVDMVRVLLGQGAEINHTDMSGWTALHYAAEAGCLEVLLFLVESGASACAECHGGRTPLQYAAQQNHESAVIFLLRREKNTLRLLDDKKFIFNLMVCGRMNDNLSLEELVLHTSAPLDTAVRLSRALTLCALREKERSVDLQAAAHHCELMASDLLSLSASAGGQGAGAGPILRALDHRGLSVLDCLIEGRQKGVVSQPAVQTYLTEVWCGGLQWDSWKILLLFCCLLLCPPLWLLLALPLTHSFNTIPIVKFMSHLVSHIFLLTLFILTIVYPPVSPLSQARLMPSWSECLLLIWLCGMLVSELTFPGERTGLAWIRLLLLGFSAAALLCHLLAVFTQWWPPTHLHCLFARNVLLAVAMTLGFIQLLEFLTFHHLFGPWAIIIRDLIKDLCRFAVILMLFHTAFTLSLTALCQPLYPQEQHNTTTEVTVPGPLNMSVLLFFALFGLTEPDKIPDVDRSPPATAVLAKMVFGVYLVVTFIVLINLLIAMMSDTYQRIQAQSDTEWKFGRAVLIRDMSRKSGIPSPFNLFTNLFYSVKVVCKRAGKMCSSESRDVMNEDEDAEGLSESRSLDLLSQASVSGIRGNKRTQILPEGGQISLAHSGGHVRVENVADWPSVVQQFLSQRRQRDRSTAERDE
Sequence of Mucolipin-3 (Q8TDD5 whole entry): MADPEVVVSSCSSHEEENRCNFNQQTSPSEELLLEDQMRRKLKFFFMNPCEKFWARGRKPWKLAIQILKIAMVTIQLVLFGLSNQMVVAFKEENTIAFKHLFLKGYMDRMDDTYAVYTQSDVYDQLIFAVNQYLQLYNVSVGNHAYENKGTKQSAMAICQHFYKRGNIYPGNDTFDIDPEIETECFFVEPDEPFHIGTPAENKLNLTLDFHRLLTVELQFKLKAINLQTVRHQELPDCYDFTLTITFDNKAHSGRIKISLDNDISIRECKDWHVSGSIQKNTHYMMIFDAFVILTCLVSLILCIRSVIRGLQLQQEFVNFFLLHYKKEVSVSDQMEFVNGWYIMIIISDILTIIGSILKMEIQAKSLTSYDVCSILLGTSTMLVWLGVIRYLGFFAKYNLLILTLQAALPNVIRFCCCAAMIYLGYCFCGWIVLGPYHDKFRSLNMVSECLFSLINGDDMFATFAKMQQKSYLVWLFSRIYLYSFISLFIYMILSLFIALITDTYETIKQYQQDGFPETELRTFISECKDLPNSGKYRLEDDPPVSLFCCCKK
Sequence of Cytochrome P450 2C9 (P11712 whole entry): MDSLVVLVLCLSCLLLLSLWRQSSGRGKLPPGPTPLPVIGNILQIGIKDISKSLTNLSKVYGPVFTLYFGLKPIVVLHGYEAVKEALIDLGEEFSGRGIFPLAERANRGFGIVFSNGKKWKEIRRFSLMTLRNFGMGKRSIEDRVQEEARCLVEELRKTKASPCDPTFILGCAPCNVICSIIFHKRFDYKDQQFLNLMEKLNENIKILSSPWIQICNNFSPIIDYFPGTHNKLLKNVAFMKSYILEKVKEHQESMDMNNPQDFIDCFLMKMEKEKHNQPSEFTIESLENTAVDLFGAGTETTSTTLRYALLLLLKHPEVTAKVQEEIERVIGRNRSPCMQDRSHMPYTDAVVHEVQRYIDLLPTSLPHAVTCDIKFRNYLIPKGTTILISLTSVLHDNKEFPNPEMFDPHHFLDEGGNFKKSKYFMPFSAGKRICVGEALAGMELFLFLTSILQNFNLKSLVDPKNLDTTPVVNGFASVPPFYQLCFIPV
Sequence of Lysosomal acid glucosylceramidase (P04062 whole entry): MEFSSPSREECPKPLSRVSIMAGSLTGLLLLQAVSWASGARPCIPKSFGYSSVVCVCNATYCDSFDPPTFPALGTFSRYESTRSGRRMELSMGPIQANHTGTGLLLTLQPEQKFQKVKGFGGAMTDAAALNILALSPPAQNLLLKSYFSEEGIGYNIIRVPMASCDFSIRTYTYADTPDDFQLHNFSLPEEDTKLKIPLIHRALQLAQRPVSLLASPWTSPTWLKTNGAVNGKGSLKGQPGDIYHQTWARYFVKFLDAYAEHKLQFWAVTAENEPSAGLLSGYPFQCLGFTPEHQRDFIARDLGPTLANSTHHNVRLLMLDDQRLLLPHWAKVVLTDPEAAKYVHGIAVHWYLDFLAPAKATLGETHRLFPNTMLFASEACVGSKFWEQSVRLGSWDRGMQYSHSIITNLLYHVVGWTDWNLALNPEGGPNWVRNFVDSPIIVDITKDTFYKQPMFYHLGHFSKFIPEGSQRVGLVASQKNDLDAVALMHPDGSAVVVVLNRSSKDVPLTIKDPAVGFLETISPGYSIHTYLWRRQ
Sequence of Cytochrome P450 3A4 (P08684 whole entry): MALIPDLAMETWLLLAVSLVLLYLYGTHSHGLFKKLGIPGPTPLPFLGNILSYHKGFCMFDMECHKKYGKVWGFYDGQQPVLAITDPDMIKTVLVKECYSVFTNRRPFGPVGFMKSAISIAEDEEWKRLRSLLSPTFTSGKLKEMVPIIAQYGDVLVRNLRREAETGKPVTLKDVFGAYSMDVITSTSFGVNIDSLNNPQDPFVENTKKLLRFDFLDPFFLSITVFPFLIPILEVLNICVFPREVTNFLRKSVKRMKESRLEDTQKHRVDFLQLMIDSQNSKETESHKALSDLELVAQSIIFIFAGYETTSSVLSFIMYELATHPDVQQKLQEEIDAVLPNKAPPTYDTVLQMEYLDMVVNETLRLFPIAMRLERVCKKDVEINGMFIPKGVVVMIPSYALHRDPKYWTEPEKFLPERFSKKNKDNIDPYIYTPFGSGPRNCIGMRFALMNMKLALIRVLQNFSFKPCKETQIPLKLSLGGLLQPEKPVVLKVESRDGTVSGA
Sequence of Nonstructural protein 1 (Q194T2 whole entry): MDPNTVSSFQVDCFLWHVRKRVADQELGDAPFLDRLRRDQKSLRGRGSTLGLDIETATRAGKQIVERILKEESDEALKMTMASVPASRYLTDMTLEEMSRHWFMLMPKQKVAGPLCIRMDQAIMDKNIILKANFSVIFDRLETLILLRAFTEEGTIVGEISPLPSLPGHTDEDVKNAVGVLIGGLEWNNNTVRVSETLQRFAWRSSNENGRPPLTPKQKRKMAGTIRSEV

For orientation: IC50 means the point on the concentration scale where inhibition reaches its midpoint. As for `CCOc1ccc(NC(=O)CCN2CCN(c3ccccc3)CC2)cc1`, the IC50 in experiment [1] is > 100 µM (active).
One may read the EC50 as the midpoint of the concentration-response curve. The CC50 is the concentration giving 50% cytotoxicity. `Oc1c(Cl)cc(Cl)c2c1NCCC2`: the values for the EC50 (on Streptokinase A; with Streptococcus; in experiment [5]) were > 150 µM (not active), 85.5 µM (active) and 5.36 µM (active), respectively. The IC50 was 25.3 µM (active) in experiment [2] and 31.4 µM (active) in [3]. Also, the CC50 in the experiment with Vero [4] was 34.5 µM (active).
On to `CN(C)c1ncc(S(=O)(=O)c2ccccc2)c(-c2ccc(Cl)cc2Cl)n1`, for which the EC50 at Ion channel NompC is > 29.9 µM (not active); at Mucolipin-3, 1.87 µM (active).
As to `COc1ccc2c(c1)c(CC(=O)Nc1ccc(C)cc1)c(C)n2C(=O)c1ccc(Cl)cc1`, the EC50 in experiment [6] was 1.04 µM (active); in [8], > 60 µM (not active). The CC50 in [7] is > 40 µM (active).
Usually AC50 stands for the midpoint of the concentration-response curve, whichever way the signal moves. Take `C/C=C/OC(=O)NC(c1ccccc1)[C@]1(C(C)=O)CCCC1=O` (stereo partly drawn): the AC50 is 3.98 µM (inconclusive) on Cytochrome P450 2C9 and 0.126 µM (inconclusive) at Cytochrome P450 3A4.
`Cc1ccccc1NC(=O)Nc1cccs1`: the half-maximal effective concentration (EC50) in [9] is reported as > 50 µM (not active).
Consider `CCOC(=O)C1CCN(C(=O)c2ccc(NC(=O)C3CCCO3)cc2)CC1` (stereo not drawn), for which the concentration for a half-maximal effect (EC50) in experiment [9] was > 50 µM (not active).
As for `CC(C)[C@H]1C(=O)N2CCC[C@@H]2[C@]2(O)O[C@@](NC(=O)[C@H]3C=C4c5cccc6[nH]cc(c56)C[C@H]4N(C)C3)(C(C)C)C(=O)N12`, at Cytochrome P450 2C9, the AC50 is 25.1 µM (inconclusive).
For `COc1ccc(C(=O)NC(=S)NNC(=O)c2c(-c3ccccc3)noc2C)cc1OC`, the EC50 is 7.42 µM (active) at Ion channel NompC; 6.68 µM (active) in experiment [11]; 7.51 µM (active) on Mucolipin-3; 7.7 µM (active) in the experiment on Streptococcus; 0.62 µM (active) in [5]. In addition, the CC50 with Vero [10] is 17.2 µM (active).
Turning to `N#C/C(=C(/O)CSc1nnc(Cc2cccs2)n1C1CCCCC1)c1nc2ccccc2[nH]1`, the IC50 in experiment [1] is > 100 µM (active); at Aminopeptidase N, 78.9 µM (active).
For the compound `NC(=S)N/N=C/c1cccc(O)c1O`, the IC50 is 4.5 µM (active) on Nonstructural protein 1, 11 µM (active) in experiment [12] and 31.5 µM (active) in [3].

The record behind these values is ChEMBL document CHEMBL1201862, “PubChem BioAssay data set” (2004).
